Patent US9108930B2, “N1- and N2-carbamoyl-1,2,3-triazole serine hydrolase inhibitors and methods” (The Scripps Research Institute, priority 2011, dated 2015)
Values joined by “and” are separate entries in the source; they are usually repeats but may differ in a detail not shown here. Equal entries are not always repeated.

How the values were obtained:
APEH [1] = biological target: T1, APEH (Mus musculus, UniProt Q8R146); test: In situ inhibition in cultured mouse T-cells, gel-based competitive ABPP; format: cell-based; conditions: 4 h at 37° C.; read-out: potency of APEH inactivation in cultured T-cells
T1 sequence (Q8R146 1-732): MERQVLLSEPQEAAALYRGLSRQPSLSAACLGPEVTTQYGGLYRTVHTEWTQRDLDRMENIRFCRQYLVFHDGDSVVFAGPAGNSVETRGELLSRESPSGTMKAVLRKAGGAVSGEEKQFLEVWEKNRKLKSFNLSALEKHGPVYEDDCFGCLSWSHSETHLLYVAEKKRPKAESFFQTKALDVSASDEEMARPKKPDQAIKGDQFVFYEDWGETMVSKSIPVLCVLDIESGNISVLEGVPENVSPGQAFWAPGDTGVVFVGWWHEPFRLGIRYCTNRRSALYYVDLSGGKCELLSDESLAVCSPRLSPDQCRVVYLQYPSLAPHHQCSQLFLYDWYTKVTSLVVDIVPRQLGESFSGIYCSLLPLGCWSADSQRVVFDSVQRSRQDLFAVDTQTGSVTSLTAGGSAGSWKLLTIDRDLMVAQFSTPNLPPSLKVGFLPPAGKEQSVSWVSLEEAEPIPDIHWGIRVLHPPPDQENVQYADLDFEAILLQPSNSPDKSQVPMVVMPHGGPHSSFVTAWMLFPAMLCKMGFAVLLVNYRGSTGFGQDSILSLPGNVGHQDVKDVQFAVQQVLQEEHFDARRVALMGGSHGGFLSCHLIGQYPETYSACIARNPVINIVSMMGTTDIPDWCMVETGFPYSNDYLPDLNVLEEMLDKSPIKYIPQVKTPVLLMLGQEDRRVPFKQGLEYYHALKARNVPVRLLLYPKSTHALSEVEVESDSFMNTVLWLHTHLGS

APEH [2] = biological target: T1, APEH; test: ABPP-SILAM of brain tissue from treated mice; format: in vivo; conditions: treated mice (vehicle 14)
Description: (§1) The potency and selectivity of 1,2,3-triazole ureas in vivo also was investigated. Mice were treated with the APEH inhibitor AA74-1 at various doses (0.2-1.6 mg/kg; PEG300 or 18:1:1 saline/ethanol/emulphor intraperitoneally) and sacrificed after 4 h. Brains and hearts were removed, homogenized, and analyzed by gel-based competitive ABPP. […] Finally, the possibility of extending ABPP-SILAC for the characterization of inhibitor selectivity in vivo was explored by taking advantage of recently described protocols for stable isotope labeling in mammals (SILAM). In this approach, brain tissues from vehicle- and AA74-1-treated mice were separately mixed with equivalent amounts of brain tissue from ‘heavy’ amino acid-fed mice, and the samples were then labeled with FP-biotin, enriched by avidin chromatography, analyzed by LC-MS, and SH activities quantified by measuring the ratio-of-ratios for observed peptide signals. […] The ratio-of-ratio signals for APEH indicated greater than 90% inhibition of this enzyme in AA74-1-treated animals (FIG. 5b, top), consistent with average spectral count values (14 and 1 spectral counts for APEH in vehicle-treated versus AA74-1-treated mice, respectively; FIG. 5b, bottom). […] ACHE, an enzyme that is targeted by other reported NHU inhibitors, was not inhibited by AA74-1 in either mouse brain (FIG. 5b) or transfected cell (FIG. 16) proteomes.
C57BL6 mice were labeled with ^15N. Briefly, each mouse was fed an ^15N-labeled protein diet starting immediately after weaning which continued for the next 10 weeks. The ^15N-labeled diet was generated by combining spirulina biomass ^15N-labeled (Cambridge Isotopes) with protein-free diet powder (Harlan TD 93328) in a 1:2 (wt/wt) ratio and an appropriate amount of H2O to generate a dough. This dough is then cut into 2-cm thick pellets and dried at 60° C. for 2-4 h and then at 35° C. overnight using an Excalibur food dehydrator. These ^15N-labeled food pellets are then used to replace normal chow. […] Brains were determined to be 95% labeled by mass spectrometry with ^15N and used for quantitative analysis. […]

[3] = system: serine hydrolases (SHs) in mouse brain and heart; test: In vivo selectivity across SHs in tissues of treated mice (gel-based ABPP, ABPP-SILAM)
Description: as §1

human APEH = biological target: T2, human APEH (Homo sapiens, UniProt P13798); test: Competitive ABPP, soluble fractions of human cancer cells; format: biochemical
T2 construct: endogenous in cells; host or cells: SKOV3, C8161, MDA-MB-231 (soluble fractions)
T2 sequence (P13798 whole entry): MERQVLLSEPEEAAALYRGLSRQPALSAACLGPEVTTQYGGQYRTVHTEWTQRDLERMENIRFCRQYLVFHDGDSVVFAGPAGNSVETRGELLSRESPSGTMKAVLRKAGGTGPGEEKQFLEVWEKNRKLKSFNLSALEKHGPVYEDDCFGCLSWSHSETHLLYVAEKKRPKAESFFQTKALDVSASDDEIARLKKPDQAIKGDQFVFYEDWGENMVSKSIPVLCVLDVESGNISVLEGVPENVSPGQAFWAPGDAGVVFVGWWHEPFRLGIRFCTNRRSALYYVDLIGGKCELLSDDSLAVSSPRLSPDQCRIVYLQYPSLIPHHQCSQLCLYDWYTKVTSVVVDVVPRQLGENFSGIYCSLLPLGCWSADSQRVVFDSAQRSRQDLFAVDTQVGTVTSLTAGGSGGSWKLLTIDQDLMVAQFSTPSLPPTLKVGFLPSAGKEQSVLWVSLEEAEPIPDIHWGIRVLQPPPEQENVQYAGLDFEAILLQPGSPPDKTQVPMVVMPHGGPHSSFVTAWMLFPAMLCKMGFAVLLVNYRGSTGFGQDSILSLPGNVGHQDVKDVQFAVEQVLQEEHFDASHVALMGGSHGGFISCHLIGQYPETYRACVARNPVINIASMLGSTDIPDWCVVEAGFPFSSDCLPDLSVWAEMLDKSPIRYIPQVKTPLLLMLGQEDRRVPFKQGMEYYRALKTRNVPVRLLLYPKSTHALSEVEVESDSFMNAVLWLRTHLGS
Description: (§2) The soluble fractions of human ovarian (SKOV3), melanoma (C8161), and breast (MDA-MB-231) cancer cells, as well as rat neuroblastoma (B103) cells were treated with 30 nM AA74-1 or DMSO for 30 minutes at 37° C., after which the samples were analyzed by competitive ABPP. Inhibited APEH is highlighted with boxes. Note that other SHs detected in human and mouse proteomes were not inhibited by AA74-1.

rat APEH = biological target: T3, rat APEH (Rattus norvegicus, UniProt P13676); test: Competitive ABPP, soluble fraction of rat neuroblastoma (B103) cells; format: biochemical
T3 construct: endogenous in cells; host or cells: B103 rat neuroblastoma cells (soluble fraction)
T3 sequence (P13676 whole entry): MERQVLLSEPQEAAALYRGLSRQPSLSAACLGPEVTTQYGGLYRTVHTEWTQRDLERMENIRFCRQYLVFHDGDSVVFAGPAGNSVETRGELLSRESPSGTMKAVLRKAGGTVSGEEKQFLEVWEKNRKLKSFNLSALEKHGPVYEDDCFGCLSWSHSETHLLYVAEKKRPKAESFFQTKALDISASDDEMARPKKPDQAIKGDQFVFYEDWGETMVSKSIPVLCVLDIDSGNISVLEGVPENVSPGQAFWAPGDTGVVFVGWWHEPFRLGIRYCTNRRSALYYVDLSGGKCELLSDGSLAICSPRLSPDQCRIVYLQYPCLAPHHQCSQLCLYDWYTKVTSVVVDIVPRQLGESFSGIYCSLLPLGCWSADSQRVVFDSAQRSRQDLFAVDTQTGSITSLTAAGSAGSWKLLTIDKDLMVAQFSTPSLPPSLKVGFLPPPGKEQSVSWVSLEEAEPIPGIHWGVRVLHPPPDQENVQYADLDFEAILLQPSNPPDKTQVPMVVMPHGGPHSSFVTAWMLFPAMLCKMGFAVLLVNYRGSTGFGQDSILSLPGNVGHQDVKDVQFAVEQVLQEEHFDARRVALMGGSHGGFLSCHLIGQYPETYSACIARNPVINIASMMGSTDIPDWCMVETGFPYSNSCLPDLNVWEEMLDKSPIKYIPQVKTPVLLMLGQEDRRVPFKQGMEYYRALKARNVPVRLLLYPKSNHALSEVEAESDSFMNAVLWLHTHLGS
Description: as §2

APEH [4] = biological target: T1, APEH; test: ABPP-SILAC in living mouse T-cells; conditions: 3 nM inhibitor, 4 h
[5] = system: N-terminally modified proteins (APEH substrates) in mouse T-cells; test: SILAC-based N-terminal labeling and enrichment in mouse T-cells
ABHD6 = biological target: T4, ABHD6 (Mus musculus, UniProt Q8R2Y0); test: ABPP-SILAC in Neuro2A cells; conditions: about 4 hours; 25 nM
T4 sequence (Q8R2Y0 1-336): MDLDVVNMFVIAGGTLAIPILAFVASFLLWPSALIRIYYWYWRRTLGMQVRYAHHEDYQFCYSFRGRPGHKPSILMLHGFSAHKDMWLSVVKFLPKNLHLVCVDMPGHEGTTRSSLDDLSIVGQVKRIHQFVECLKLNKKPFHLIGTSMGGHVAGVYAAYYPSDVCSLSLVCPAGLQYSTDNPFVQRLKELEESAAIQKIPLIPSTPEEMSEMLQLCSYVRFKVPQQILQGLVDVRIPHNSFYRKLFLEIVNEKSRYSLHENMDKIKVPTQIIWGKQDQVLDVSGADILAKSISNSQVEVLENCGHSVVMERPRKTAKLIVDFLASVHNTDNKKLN

| SMILES | IC50 (APEH [1]) [nM] | average spectral count for APEH (APEH [2]) [spectral counts] | SHs inhibited among 44 SHs identified in brain (ABPP-SILAM) ([3]; 0.8 mg/kg, i.p.) | additional SH targets by gel-based ABPP ([3]; brain and heart, 0.2-1.6 mg/kg i.p., 4 h) | IC50 (human APEH) [nM] | IC50 (rat APEH) [nM] | APEH activity blocked (APEH [4]) | changes in N-terminal labeling signals of five N-terminally acetylated proteins ([5]; 1 nM) [fold] | number of proteins with consistent two-fold or greater reductions in N-terminal labeling signals ([5]; 1 nM versus DMSO) [proteins] | ABHD6 activity blocked (ABHD6) [%] |
| --- | --- | --- | --- | --- | --- | --- | --- | --- | --- | --- |
| CC(C)CC(O)(CC(C)C)c1cnn(C(=O)N2CCCC2)n1 [AA74-1] | 0.14 to 0.17 | 1 | only APEH was inhibited | No additional SH targets were observed | 11 | 7 | > 95% and > 97% | 2.5 to 4.6 | 25 |  |
| COc1ccc(-c2ccc(-c3cn(C(=O)N4CCCCC4c4ccccc4)nn3)cc2)cc1 (stereo not shown) [KT195] |  |  |  |  |  |  |  |  |  | > 90 |
